Experiments:
[1] = system: C. albicans, C. glabrata, C. krusei, C. parapsilosis, and C. pseudotropicalis; settings: in vitro; Strandberg et al. 2010; cited from earlier work
C. auris = assay: Killing of C. auris clinical isolates by GML alone in Todd Hewitt growth medium (plate counts); assay type: cell-based, Candida auris; settings: two clinical isolates, 37° C., by 8 hours' incubation, limit of detection 10 CFUs/ml
Excerpt: In a first study performed was to test the ability of GML alone to kill two recent clinical isolates of C. auris (FIG. 1). […] The lower limit of detection of Candida is 10 CFUs/ml for these studies.

Candida = settings: women of menstrual age; Strandberg et al. 2010; cited from earlier work

## Glycerol monolaurate [GML]
[1]
  Ability to kill selected Candida species: ability to kill selected Candida species
C. auris
  GML concentrations at which C. auris is killed (significant killing defined as ≥3 logs killing): ≥ 50 μg/ml
Candida
  Numbers of Candida vaginally in women: can reduce the numbers of Candida vaginally

Source: US20200237705A1, “METHOD TO TREAT ANTIMICROBIAL RESISTANT CANDIDA” (Hennepin Life Sciences, LLC, priority 2017, published 2020)
